Values belong to the compound of their own block, whether it stands above or below them.
How the values were obtained:
Experiment in all cases: Competitive isoTOP-ABPP, cell lysates;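 as to isoTOP-ABPP reactivity profile ratio, P68036 C86: Heavy/light ratio DMSO over fragment-treated so higher means more cysteine engagement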
Type in all cases: binding
[1] = target: UBE2L3 C86 (P68036) (Homo sapiens, UniProt P68036); settings: for isoTOP-ABPP reactivity profile ratio, P68036_C86 / isoTOP-ABPP reactivity ratio, P68036_C86: 500 μm;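 as to isoTOP-ABPP reactivity profile ratio, P68036 C86: Heavy/light ratio DMSO over fragment-treated so higher means more cysteine engagement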
[2] = target: T1, USP22 C171 (Q9UPT9) (Homo sapiens, UniProt Q9UPT9); settings: for isoTOP-ABPP reactivity ratio, Q9UPT9_C171: 500 μm
T1 sequence (Q9UPT9 1-525): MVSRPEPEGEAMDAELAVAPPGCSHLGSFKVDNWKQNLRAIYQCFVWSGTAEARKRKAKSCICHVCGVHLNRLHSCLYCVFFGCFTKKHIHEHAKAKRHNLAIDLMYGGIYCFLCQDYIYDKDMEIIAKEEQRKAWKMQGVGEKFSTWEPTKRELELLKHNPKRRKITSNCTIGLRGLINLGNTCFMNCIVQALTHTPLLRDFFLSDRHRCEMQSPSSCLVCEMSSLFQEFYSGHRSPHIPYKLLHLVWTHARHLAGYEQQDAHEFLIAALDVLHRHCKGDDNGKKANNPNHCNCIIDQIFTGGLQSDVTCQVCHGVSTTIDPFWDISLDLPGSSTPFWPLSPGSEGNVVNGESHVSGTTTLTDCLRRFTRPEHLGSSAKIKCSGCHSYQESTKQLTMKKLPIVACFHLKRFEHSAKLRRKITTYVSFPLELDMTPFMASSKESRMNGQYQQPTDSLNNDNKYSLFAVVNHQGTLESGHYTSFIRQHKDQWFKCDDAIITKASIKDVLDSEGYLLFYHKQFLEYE

[3] = target: SAMHD1 C522 (Q9Y3Z3) (Homo sapiens, UniProt Q9Y3Z3); settings: for R value (DMSO/fragment): 500 μM
[4] = target: T2, IRF4 C194 (Q15306) (Homo sapiens, UniProt Q15306); settings: for isoTOP-ABPP ratio (reactivity profile), Q15306_C194: 500 μm in-vitro ramos
T2 sequence (Q15306 1-451): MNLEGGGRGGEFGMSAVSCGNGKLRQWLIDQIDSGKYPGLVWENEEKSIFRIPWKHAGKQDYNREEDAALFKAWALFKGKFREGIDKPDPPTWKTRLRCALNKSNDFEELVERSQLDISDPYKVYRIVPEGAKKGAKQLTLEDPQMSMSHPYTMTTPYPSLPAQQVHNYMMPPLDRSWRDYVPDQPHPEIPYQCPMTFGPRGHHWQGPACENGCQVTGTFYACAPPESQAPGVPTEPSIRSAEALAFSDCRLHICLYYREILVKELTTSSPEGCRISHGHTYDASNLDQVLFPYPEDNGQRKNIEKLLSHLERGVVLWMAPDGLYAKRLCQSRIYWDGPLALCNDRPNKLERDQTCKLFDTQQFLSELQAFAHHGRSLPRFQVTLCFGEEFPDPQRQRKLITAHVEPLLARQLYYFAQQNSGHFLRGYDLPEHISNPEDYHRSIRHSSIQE

[5] = target: T3, ADA C75 (P00813) (Homo sapiens, UniProt P00813); settings: for isoTOP-ABPP ratio (reactivity profile), P00813_C75: 500 μm in-vitro ramos; for R value (DMSO/fragment): 500 μM, invitro, ramos
T3 sequence (P00813 1-363): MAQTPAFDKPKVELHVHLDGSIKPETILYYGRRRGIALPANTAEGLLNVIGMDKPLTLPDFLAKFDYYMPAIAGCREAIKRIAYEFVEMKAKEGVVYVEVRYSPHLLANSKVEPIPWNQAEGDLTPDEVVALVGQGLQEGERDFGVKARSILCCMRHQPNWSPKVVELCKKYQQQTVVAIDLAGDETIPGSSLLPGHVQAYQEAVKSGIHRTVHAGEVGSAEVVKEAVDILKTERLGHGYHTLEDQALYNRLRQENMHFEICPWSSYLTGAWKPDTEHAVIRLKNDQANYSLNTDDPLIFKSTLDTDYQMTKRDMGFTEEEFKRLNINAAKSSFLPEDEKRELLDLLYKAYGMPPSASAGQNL

Structure (SMILES): O=C(CCl)Nc1cc(C(F)(F)F)cc(C(F)(F)F)c1 [compound 3]
R value (DMSO/fragment) ([1]; 500 μM, in vitro, MDA-MB-231): 1.2
R value (DMSO/fragment) ([1]; 500 μM, invitro, ramos): 3.0
R value (DMSO/fragment) ([3]; in vitro, MDA-MB-231): 2.6
R value (DMSO/fragment) ([4]; 500 μM, invitro, ramos): 20.0
R value (DMSO/fragment) [5]: 1.5

Structure (SMILES): C=CC(=O)N(Cc1cccnc1)c1ccc(Oc2ccccc2)c(C(F)(F)F)c1 [compound 15]
isoTOP-ABPP ratio (reactivity profile), P68036_C86 ([1]; 500 μm in-vitro ramos): 1.3
isoTOP-ABPP ratio (reactivity profile), Q9Y3Z3_C522 ([3]; 500 μm in-vitro ramos): 1.6
isoTOP-ABPP ratio (reactivity profile), Q15306_C194 [4]: 2.2
isoTOP-ABPP ratio (reactivity profile), P00813_C75 [5]: 1.1

Structure (SMILES): COc1ccc2c(c1)CCCN2C(=O)CCl [compound 2]
R value (DMSO/fragment) ([1]; 500 μM, in vitro, MDA-MB-231): 2.8
R value (DMSO/fragment) ([1]; 500 μM, invitro, ramos): 2.5
R value (DMSO/fragment) ([2]; 500 μM, invitro, ramos): 7.1
R value (DMSO/fragment) ([3]; invitro, ramos): 4.0
R value (DMSO/fragment) [5]: 7.3

Structure (SMILES): CNS(=O)(=O)C=Cc1ccc2c(ccn2Cc2ccccc2)c1 [compound 6]
isoTOP-ABPP ratio, P68036_C86 ([1]; 500 μM, invitro, 231): 1.8

Structure (SMILES): CC(Cl)C(=O)Nc1cc(C(F)(F)F)cc(C(F)(F)F)c1 (stereo not drawn) [compound 25]
isoTOP-ABPP ratio (reactivity profile), P68036_C86 ([1]; 500 μm in-vitro ramos_231): 1.5
isoTOP-ABPP ratio (reactivity profile), Q9UPT9_C171 ([2]; 500 μm in-vitro ramos_231): 1.1

Structure (SMILES): N#C/C(=C\c1cc(C(F)(F)F)cc(C(F)(F)F)c1)C(N)=O [compound 23]
isoTOP-ABPP ratio (reactivity profile), P68036_C86 ([1]; 500 μm in-vitro ramos): 13.2
isoTOP-ABPP ratio (reactivity profile), P68036_C86 ([1]; 500 μm in-vitro ramos_231): 7.4
isoTOP-ABPP ratio (reactivity profile), Q9UPT9_C171 ([2]; 500 μm in-vitro ramos_231): 5.1
isoTOP-ABPP ratio (reactivity profile), Q15306_C194 [4]: 1.9
isoTOP-ABPP ratio (reactivity profile), P00813_C75 [5]: 1.1

Further lines, results first:

isoTOP-ABPP ratio (reactivity profile), P68036_C86 ([1]; 500 μm in-vitro ramos): 0.7
isoTOP-ABPP ratio (reactivity profile), Q9UPT9_C171 ([2]; 500 μm in-vitro ramos): 1.0
isoTOP-ABPP ratio (reactivity profile), Q9Y3Z3_C522 ([3]; 500 μm in-vitro ramos): 0.9
isoTOP-ABPP ratio (reactivity profile), Q15306_C194 [4]: 1.1
isoTOP-ABPP ratio (reactivity profile), P00813_C75 [5]: 0.8
Structure (SMILES): O=C(/C=C/c1ccccc1)Nc1cc(C(F)(F)F)cc(C(F)(F)F)c1 [compound 26]

isoTOP-ABPP reactivity profile ratio, P68036_C86 ([1]; in-vitro_ramos): 1.0
isoTOP-ABPP reactivity profile ratio, Q15306_C194 ([4]; 500 μm, in-vitro_ramos): 1.4
isoTOP-ABPP reactivity profile ratio, P00813_C75 ([5]; 500 μm, in-vitro_ramos): 1.0
Structure (SMILES): O=C(CCl)Nc1cccc2ncccc12 [compound 51]

isoTOP-ABPP reactivity ratio, P68036_C86 ([1]; in-vitro_ramos): 1.5
isoTOP-ABPP reactivity ratio, Q9UPT9_C171 ([2]; in-vitro_ramos_231): 1.4
isoTOP-ABPP reactivity ratio, Q15306_C194 ([4]; 500 μm, in-vitro_ramos): 2.1
isoTOP-ABPP reactivity ratio, P00813_C75 ([5]; 500 μm, in-vitro_ramos): 2.3
Structure (SMILES): C=CC(=O)Nc1cc(F)c(N2CCN(C(=O)OC(C)(C)C)CC2)c(F)c1 [compound 38]

isoTOP-ABPP reactivity profile ratio, P68036_C86 ([1]; in-vitro_ramos_231): 1.2
Structure (SMILES): C=CC(=O)N(c1ccccc1)C1CCCCC1 [compound 46]

isoTOP-ABPP reactivity ratio, Q9Y3Z3_C522 ([3]; 500 μm, in-vitro_ramos): 0.7
isoTOP-ABPP reactivity ratio, Q15306_C194 ([4]; 500 μm, in-vitro_ramos): 0.9
isoTOP-ABPP reactivity ratio, P00813_C75 ([5]; 500 μm, in-vitro_ramos): 0.9
Structure (SMILES): C=CC(=O)N1CCC(c2noc3ccc(F)cc23)CC1 [compound 37]

isoTOP-ABPP reactivity ratio, P68036_C86 ([1]; in-vitro_ramos): 0.9
isoTOP-ABPP reactivity ratio, P68036_C86 ([1]; in-vitro_ramos_231): 0.8
isoTOP-ABPP reactivity ratio, Q9Y3Z3_C522 ([3]; 500 μm, in-vitro_ramos_231): 0.8
isoTOP-ABPP reactivity ratio, Q15306_C194 ([4]; 500 μm, in-vitro_ramos): 1.1
isoTOP-ABPP reactivity ratio, P00813_C75 ([5]; 500 μm, in-vitro_ramos): 0.9
Structure (SMILES): C=CC(=O)Nc1cc(C)c(Br)cc1C [compound 40]

isoTOP-ABPP reactivity ratio, Q9UPT9_C171 ([2]; in-vitro_ramos): 1.5
isoTOP-ABPP reactivity ratio, Q15306_C194 ([4]; 500 μm, in-vitro_ramos): 1.0
isoTOP-ABPP reactivity ratio, P00813_C75 ([5]; 500 μm, in-vitro_ramos): 1.1
Structure (SMILES): O=C(CCl)Nc1ccccc1C1CCCCCC1 [compound 35]

isoTOP-ABPP reactivity profile ratio, Q9Y3Z3_C522 ([3]; 500 μm, in-vitro_ramos_231): 0.8
Structure (SMILES): O=C(CCl)NC1C(O)OC(CO)C(O)C1O (mixture of isomers) [compound 44]

isoTOP-ABPP ratio (reactivity profile), P68036_C86 ([1]; 500 μm in-vitro ramos): 1.5
isoTOP-ABPP ratio (reactivity profile), P68036_C86 ([1]; 500 μm in-vitro ramos_231): 0.9
isoTOP-ABPP ratio (reactivity profile), Q9Y3Z3_C522 ([3]; 500 μm in-vitro ramos_231): 1.5
isoTOP-ABPP ratio (reactivity profile), Q15306_C194 [4]: 1.2
Structure (SMILES): O=C(CCl)N1CCN(CC(=O)N2CCOCC2)CC1 [compound 29]

— patent publication US10670605B2, “Cysteine reactive probes and uses thereof” (The Scripps Research Institute, priority 2015, dated 2020)
